The text below walks through data of US8969516B2, “Method of hydrolysis of peptide bond” (priority 2006, dated 2015).

Data set [1] is described as follows: Quantitative kinetic studies of Ni^2+ dependent peptide hydrolysis by HPLC. Type of data set: physicochemical. Conditions: 1 mM peptide, 1 mM Ni^2+, 45° C., pH 8.2 (20 mM Tris). On the procedure:
The title octapeptides were synthesised according to a typical Fmoc protocol (Fields, Meth. Enzymol. Vol. 289). The list of variable BXHZ sequences is given in Table 2, along with 1st order rate constants determined at 45° C., pH 8.2 (20 mM Tris buffer) for 1 mM peptide and Ni^2+ concentrations. […] The substrate and product peaks were identified by MALDI-TOF MS.

For another data set, the system named is proteinase. In words: Activity of SPI2 released from the recombinant polypeptide (Chavira et al.). Type of data set: biochemical. Conditions: after Ni^2+ cleavage on Ni-NTA-agarose, 100 mM Hepes pH 8.2, 50° C., 19 hours. On the procedure:
The recombinant polypeptide from Example 4 (100 μl of a 140 μM solution) was loaded on 200 μl of Ni-NTA-agarose (Invitrogen), according to the manufacturer's instruction, and incubated in 100 mM Hepes buffer, pH 8.2 with 5 mM Ni^2+ at 50° C. without shaking. The incubation buffer (500 μl) was removed after 19 hours. Then the unreacted polypeptide and the cleaved off SRHW-AP-HHHHHH domain were washed from the column with two 400 μl portions of 200 mM imidazole, pH 7.4. The samples were analyzed by HPLC under conditions given in Example 4. FIG. 4 presented chromatograms of the control recombinant polypeptide, incubation buffer and both wash fractions. Masses of polypeptides were measured by ESI-MS. The yield of purified SPI2 was 88%. SPI2 obtained from this procedure was fully active, as determined according to […] et al., Anal. Biochem. 1984, 136, 446-450.

Data set [2] can be described thus: MALDI-TOF screening of Ni^2+ dependent hydrolysis in a combinatorial peptide library. Type of data set: physicochemical. The following applies: Ni^2+ 2 mM, pH 8.2, 10 mM Tris, score=24/tm. In a few lines:
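Sublibraries of Ac-Gly-Ala-Ser/Thr-X-His-Z-Lys-Phe-Leu-NH2, randomized at Z and fixed at X, were hydrolyzed at 1 mM total peptide with 2 mM Ni2+ in 10 mM Tris, pH 8.2, at 37 °C or 45 °C. Cleavage was scored visually in MALDI-TOF spectra at 2, 4, 6 and 8 h.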

Data set [3] can be described thus: Dependence of rate of hydrolysis of the Ala-Ser bond on buffer and Ni^2+ excess (HPLC). Format: physicochemical. Conditions: pH 8.2, 1 mM peptide; for κ ± S.D., 1st order rate constant for the hydrolysis: 25° C., 1.2 mM Ni^2+. On the procedure:
The title peptide was synthesised according to a standard Fmoc protocol (Fields, Meth. Enzymol. Vol. 289). The pH dependence of the formation of the active complex of the title peptide, represented by the structure (III) in Scheme 2, was determined by potentiometry at 25° C., as described in Krezel et al., Chem. Res. Toxicol. 2003, 16, 855-864. The rate of peptide hydrolysis was studied by HPLC (as in Example 2) in a series of mixed phosphate/Tris/Borax buffers (40/20/20 mM) at 25° C. and pH between 6 and 12.5, with peptide and Ni^2+ concentrations equal to 1 mM. As presented in FIG. 1, the rate of hydrolysis matched the formation of the active complex quantitatively.
The dependence of the rate of hydrolysis on the buffer used was studied at 25° C. separately in 20 mM Tris, Hepes and sodium phosphate buffers, all at pH 8.2, for 1 mM peptide and 1.2 mM Ni^2+.
The dependence of the rate of hydrolysis of the title peptide on the molar ratio of Ni^2+ to peptide was studied at 25° C. and pH 8.2, for 1 mM peptide. The reaction rate constant k was 4.3±0.2 s^−1×10^−5 for the Ni^2+ to peptide molar ratio of 1.2 and 4.72±0.01 s^−1×10^−5 for the Ni^2+ to peptide molar ratio of 5.

Where [4] appears, read: CH3CO-Gly-Ala-Ser-X-His-Z-Lys-Phe-Leu-NH2 library, 37° C.
[5] abbreviates: CH3CO-Gly-Ala-Ser-X-His-Z-Lys-Phe-Leu-NH2 library, 45° C.
[6] abbreviates: CH3CO-Gly-Ala-Thr-X-His-Z-Lys-Phe-Leu-NH2 library, 37° C.
[7] abbreviates: CH3CO-Gly-Ala-Thr-X-His-Z-Lys-Phe-Leu-NH2 library, 45° C.

Turning to Ac-GASWHIKFL-NH2 [-SWHI-], the “k ± S.D., 1st order rate constant for the hydrolysis” value (“k ± S.D., 1st order rate constant” for short) in data set [1] came out at 3 ± 1 s^−1 · 10^−5.
Consider Ac-GASRHWKFL-NH2 [-SRHW-], for which the “k ± S.D., 1st order rate constant” value in data set [1] is 28.8 ± 0.8 s^−1 · 10^−5.
Take “SPI2: single domain Kazal type proteinase inhibitor, released from (SPI2)-SRHW-AP-HHHHHH recombinant polypeptide”: the “activity of SPI2 obtained from cleavage on solid support” value in the data set with proteinase is listed as “fully active”.
Consider “Ac-GASRHWKFL-NH2 [SRHW, CH3CO-Gly-Ala-Ser-Arg-His-Trp-Lys-Phe-Leu-NH2]”, for which the “hydrolysis score from MALDI-TOF screening” value (“hydrolysis score” below) is listed as 12 (a score of 12, if it was seen to be partially hydrolysed at 2 hours) in data set [2] (setting [4]) and 12 (a score of 12, if it was seen to be partially hydrolysed at 2 hours) in data set [2] (setting [5]). For the same substance, the “κ ± S.D., 1st order rate constant for the hydrolysis” value in data set [3] (20 mM Hepes) stood at 5.9 ± 0.8 s^−1 × 10^−5; in data set [3] (20 mM Tris) it was 4.8 ± 0.5 s^−1 × 10^−5; in data set [3] (20 mM phosphate) it was 0.74 ± 0.09 s^−1 × 10^−5. Further, the “reaction rate constant k” value in data set [3] (Ni^2+ to peptide molar ratio of 1.2, 25° C.) stood at 4.3±0.2 s^−1×10^−5; in data set [3] (Ni^2+ to peptide molar ratio of 5, 25° C.), 4.72±0.01 s^−1×10^−5.
As to Ac-GATHHKKFL-NH2 [-THHK-], the “k ± S.D., 1st order rate constant” value in data set [1] was determined as 1.01 ± 0.09 s^−1 · 10^−5.
As for Ac-GATVHQKFL-NH2 [TVHQ], the “hydrolysis score” value in data set [2] (setting [6]) and in data set [2] (setting [7]) was 0 (a score of 0 if no trace of the product of hydrolysis was seen after 8 hours of incubation) throughout.
For the substance Ac-GATGHPKFL-NH2 [TGHP], the “hydrolysis score” value in data set [2] (setting [6]) and in data set [2] (setting [7]) was 0 (a score of 0 if no trace of the product of hydrolysis was seen after 8 hours of incubation) each time.
Turning to Ac-GASTHYKFL-NH2 [STHY], the “hydrolysis score” value in data set [2] (setting [4]) was 0 (a score of 0 if no trace of the product of hydrolysis was seen after 8 hours of incubation); in data set [2] (setting [5]), 3 (a score of 3 for detection at 8 hours).
With Ac-GASVHAKFL-NH2 [SVHA], the “hydrolysis score” value in data set [2] (setting [4]) and in data set [2] (setting [5]) was 0 (a score of 0 if no trace of the product of hydrolysis was seen after 8 hours of incubation) in each case.
Turning to Ac-GATTHPKFL-NH2 [TTHP], the “hydrolysis score” value in data set [2] (setting [6]) and in data set [2] (setting [7]) was 0 (a score of 0 if no trace of the product of hydrolysis was seen after 8 hours of incubation) each time.
Turning to Ac-GATNHRKFL-NH2 [TNHR], the “hydrolysis score” value is 0 (a score of 0 if no trace of the product of hydrolysis was seen after 8 hours of incubation) in data set [2] (setting [6]) and 3 (a score of 3 for detection at 8 hours) in data set [2] (setting [7]).
Regarding Ac-GATQHGKFL-NH2 [TQHG], the “hydrolysis score” value in data set [2] (setting [6]) and in data set [2] (setting [7]) was 0 (a score of 0 if no trace of the product of hydrolysis was seen after 8 hours of incubation) in each case.
With Ac-GASRHDKFL-NH2 [SRHD], the “hydrolysis score” value in data set [2] (setting [4]) and in data set [2] (setting [5]) was 0 (a score of 0 if no trace of the product of hydrolysis was seen after 8 hours of incubation) in each case.
For the substance Ac-GATNHIKFL-NH2 [TNHI], the “hydrolysis score” value in data set [2] (setting [6]) and in data set [2] (setting [7]) was 0 (a score of 0 if no trace of the product of hydrolysis was seen after 8 hours of incubation) throughout.
Ac-GASPHMKFL-NH2 [SPHM]: the “hydrolysis score” value in data set [2] (setting [4]) and in data set [2] (setting [5]) was 0 (a score of 0 if no trace of the product of hydrolysis was seen after 8 hours of incubation) throughout.
Ac-GASKHNKFL-NH2 [SKHN]: the “hydrolysis score” value in data set [2] (setting [4]) and in data set [2] (setting [5]) was 0 (a score of 0 if no trace of the product of hydrolysis was seen after 8 hours of incubation) throughout.
